The source of these data is patent US10118954B2, “Apelin analogues” (University of Ulster, priority 2014, dated 2018).

The structures appear in SMILES notation.

The test system of the assay is high fat fed NIH Swiss mice. As to the kind of experiment: 28 day long-term study of fatty acid apelin analogues, once daily i.p. administration. The format is in vivo. From the text:
NIH Swiss mice (Harlan UK Ltd., Blackthorne, UK) were derived from a nucleus colony obtained from the National Institute of Health, Bethesda, Md., USA. One group of mice were maintained on a standard rodent diet (10% fat, 30% protein, 60% carbohydrate; percent of total energy 12.99 kJ/g, Trouw Nutrition, Cheshire, UK) and used as a model of normal glycaemia. Other NIH Swiss mice were maintained on a high fat diet (45% fat, 20% protein, 35% carbohydrate; percent of total energy 26.15 kJ/g; Dietex, Essex, UK) from 8 weeks of age for 150 days to produce a model of diet induced obesity-diabetes. […] All mice were housed in an air-conditioned room maintained at 22±2° C. with a 12 h light: 12 h dark cycle (08:00-20:00 h), were singly caged, and selected for experimental groups according to body weight and non-fasted blood glucose. Drinking water and diet were freely available. All animal studies were performed in accordance with the UK Animals (Scientific Procedures) Act 1986.
For another 28 day long-term study of selected fatty acid apelin analogues administered once daily, normal control NIH Swiss (n=8) and high-fat fed NIH Swiss (n=8) were grouped and received once daily i.p. injections of saline vehicle (0.9% NaCl (w/v)) at 17:00 h over a 4 day run-in period. Following the run-in period, normal control (n=8) and high-fat fed mice (n=8) received once daily (17:00 h) i.p. administration of saline vehicle (0.9% NaCl (w/v)) for 28 days. Additional groups of high-fat fed mice (n=8) received once daily i.p. injections of (Lys^8gluPal)apelin-13-amide, pGlu(Lys^8gluPal)apelin-13-amide or liraglutide (each at 25 nmol/kg bw) over a 28 day treatment period.
Food intake, body weight, blood glucose and plasma insulin were monitored at intervals of 2-3 days throughout the run-in and 28 day treatment period. Blood samples for glucose and plasma insulin measurement were collected at intervals throughout the study from the cut tail vein of conscious mice. Following the 28 day treatment period, oral, i.p. and meal test glucose tolerance ([…].), and insulin sensitivity (25 U/kg bw) tests were performed. Glucose was measured using an Ascensia Contour meter and blood was collected and processed for plasma insulin analysis by radioimmunoassay. Body weight and fat mass was also assessed using the PIXImus DEXA scanner whilst energy expenditure, intake, food intake and feeding bouts were assessed using the CLAMS metabolic chamber. HbA1c was analysed post 28 days using Bayer A1C Now^+ Multi Test meter. Lipid profile test was obtained by using the iLab analyser. Cholesterol, triglyceride and HDL-cholesterol levels were measured, in plasma (3 μl), using the iLab analyser. LDL-cholesterol levels were obtained using the Friedewald equation=total cholesterol−HDL−(triglycerides/3).

Setting [1] is: once daily 25 nmol/kg bw, 28 days.

For `CCCCCCCCCCCCCCCC(=O)N[C@@H](CCC(=O)NCCCC[C@H](NC(=O)[C@H](Cc1c[nH]cn1)NC(=O)[C@H](CO)NC(=O)[C@H](CC(C)C)NC(=O)[C@H](CCCNC(=N)N)NC(=O)[C@@H]1CCCN1C(=O)[C@H](CCCNC(=N)N)NC(=O)[C@@H]1CCC(=O)N1)C(=O)NCC(=O)N1CCC[C@H]1C(=O)N[C@@H](CCSC)C(=O)N1CCC[C@H]1C(=O)N[C@@H](Cc1ccccc1)C(N)=O)C(=O)O` [pGlu(Lys^8GluPAL)apelin-13-amide], the HbA1c levels entry (after 28 days treatment) is on record as “significantly reduced”. In addition, the Percentage fat mass (after 28 days, DEXA analysis) turned out to be 30.1%. In addition, the Insulin sensitivity result (after 28 days, insulin 25 U/kg bw) is “significantly improved”. For the same compound, the “Glucose tolerance and plasma insulin excursion in response to an i.p and oral glucose challenge” value (after the 28 day treatment period) was “significantly improved”. Moreover, where the note is “once daily”, the “HDL-cholesterol levels compared to the lean control and high fat fed mice” value is given as “significantly increased”. Under setting [1], the Bodyweight reduction entry is on record as “approximately 7%”; the “Day of study at which bodyweight was significantly decreased” value was found to be 16 days; the “Day of study at which circulating blood glucose began to be significantly reduced and plasma insulin increased” value worked out at 13 days; the “Day of study at which food intake was significantly reduced” value was determined as 8 days. For the same compound, where the note is “once daily, Friedewald equation”, the “LDL-cholesterol levels compared to the high fat fed controls” value was “significantly lowered”. Where the note is “once daily, high-fat fed mice”, the Plasma triglyceride levels result is recorded as “significantly lower” and the “Total cholesterol levels in plasma” value is “significantly lower”.
